# Measured values as given in patent publication US7709645B2, “Pyrrolo-pyridine kinase modulators” (SGX Pharmaceuticals, Inc., priority 2004, dated 2010).
# Target: T1, Autophosphorylated AurA kinase (Homo sapiens, UniProt O14965)
# T1 construct: made in house; host or cells: Sf9 insect cells
# T1 sequence (O14965 1-403): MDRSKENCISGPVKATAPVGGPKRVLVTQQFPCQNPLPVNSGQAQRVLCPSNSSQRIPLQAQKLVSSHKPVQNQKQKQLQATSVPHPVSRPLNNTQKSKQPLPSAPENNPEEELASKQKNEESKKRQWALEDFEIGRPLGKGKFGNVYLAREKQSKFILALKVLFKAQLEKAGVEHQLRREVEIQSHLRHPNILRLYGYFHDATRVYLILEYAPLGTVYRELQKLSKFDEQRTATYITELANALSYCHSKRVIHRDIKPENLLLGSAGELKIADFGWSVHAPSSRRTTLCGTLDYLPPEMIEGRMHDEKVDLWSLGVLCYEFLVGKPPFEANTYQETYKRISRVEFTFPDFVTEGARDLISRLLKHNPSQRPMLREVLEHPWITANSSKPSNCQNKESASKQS
# Test: AurA Bioassay (luminescence-based enzyme assay, Kinase-Glo)
# Assay type: biochemical
# Details: 10 μM ATP
# From the text: In addition to the c-Abl PK/LDH coupled assay (above), homogeneous luminescence-based inhibitor screening assays were developed for c-Abl, MET, AurA, and PDK1 kinases (among others). Each of these assays made use of an ATP depletion assay (Kinase-Glo™, Promega Corporation, Madison, Wis.) to quantitate kinase activity. The Kinase-Glo™ format uses a thermostable luciferase to generate luminescent signal from ATP remaining in solution following the kinase reaction. The luminescent signal is inversely correlated with the amount of kinase activity.
# Materials: Kemptide peptide substrate=LRRASLG (SEQ ID NO:2) (Biopeptide, San Diego, Calif.), ATP (Sigma Cat#A-3377, FW=551), HEPES buffer, pH 7.5, 10% Brij 35 (Calbiochem Cat#203728), MgCl2, Staurosporine (Streptomyces sp. Sigma Cat#85660-1MG), white Costar 384-well flat bottom plate (VWR Cat#29444-088), Autophosphorylated AurA kinase (see below), Kinase-Glo™ (Promega Cat#V6712).
# Stock Solutions: 10 mM Kemptide peptide (7.72 mg/ml in water), stored at −20° C.; 100 mM HEPES buffer+0.015% Brij 35, pH 7.5 (5 ml 1M HEPES stock+75 μL 10% Brij 35+45 ml miliQH2O); 10 mM ATP (5.51 mg/ml in dH2O) stored at −20° C. (diluted 50 μl into total of 10 ml miliQH2O daily=50 μM ATP working stock); 100 mM MgCl2; […] Staurosporine, 2× Kinase-Glo™ reagent (made fresh or stored at −20° C.).
# AurA Autophosphorylation Reaction: ATP and MgCl2 were added to 1-5 mg/ml AurA at final concentrations of 10 mM and 100 mM, respectively. The autophosphorylation reaction was incubated at 21° C. for 2-3 h. The reaction was stopped by the addition of EDTA to a final concentration of 50 mM, and samples were flash frozen with liquid N2 and stored at −80° C.
# Standard Assay Setup for 384-well format (20 μl kinase reaction, 40 μl detection reaction): 10 mM MgCl2; 0.2 mM Kemptide peptide; […] test compound (in DMSO); 0.3 μg/ml Autophosphorylated AurA kinase; 10 μM ATP; 100 mM HEPES+0.015% Brij buffer. Positive controls contained DMSO with no test compound. Negative controls contained 5 μM staurosporine. The kinase reactions were initiated at time t=0 by the addition of ATP. Kinase reactions were incubated at 21° C. for 45 min, then 20 μl of Kinase-Glo™ reagent were added to each well to quench the kinase reaction and initiate the luminescence reaction. After a 20 min incubation at 21° C., the luminescence was detected in a plate-reading luminometer.
# The Sf9 insect cell pellets (˜18 g) produced from 6 L of cultured cells expressing human Aurora-2 were resuspended in 50 mM Na Phosphate pH 8.0, 500 mM NaCl, 10% glycerol, 0.2% n-octyl-β-D-glucopyranoside (BOG) and 3 mM β-Mercaptoethanol (BME). One tablet of Roche Complete, EDTA-free protease inhibitor cocktail (Cat# 1873580) and 85 units Benzonase (Novagen Cat#70746-3)) were added per 1 L of original culture. Pellets were resuspended in approximately 50 ml per 1 L of original culture and were then sonicated on ice with two 30-45 sec bursts (100% duty cycle). Debris was removed by centrifugation and the supernatant was passed through a 0.8 μm syringe filter before being loaded onto a 5 ml Ni^2+ HiTrap column (Pharmacia). The column was washed with 6 column volumes of 50 mM Na Phosphate pH 8.0, 500 mM NaCl, 10% glycerol, 3 mM BME. The protein was eluted using a linear gradient of the same buffer containing 500 mM Imidazole. The eluant (24 ml) was cleaved overnight at 4° C. in a buffer containing 50 mM Na Phosphate pH 8.0, 500 mM NaCl, 10% glycerol, 3 mM BME and 10,000 units of TEV (Invitrogen Cat# 10127-017). […]
row,Structure (SMILES),IC50
1,COc1ccccc1-c1c[nH]c2ncc(-c3ccc[nH]3)cc12 [AE67],500 to 5000 nM
2,CNC(=O)c1cncc(-c2cnc3[nH]cc(-c4ccccc4OC)c3c2)c1 [AE1],500 to 5000 nM
3,COc1ccccc1-c1c[nH]c2ncc(-c3ccc(S(N)(=O)=O)s3)cc12 [AE11],500 to 5000 nM
4,COCCOc1ccc(-c2cnc3[nH]cc(-c4ccccc4OC)c3c2)cc1OCCOC [AE68],500 to 5000 nM
5,COc1ccccc1-c1c[nH]c2ncc(-c3cccc(S(C)(=O)=O)c3)cc12 [AE13],500 to 5000 nM

# Test system: Ba/F3-T315I cells
# Test: Ba/F3-T315I XTT Assay (cell survival)
# Assay type: cell-based
# Details: 72 hours
# Description: MV4-11 and THP cells were maintained in Iscove's Modified Dulbecco's Medium supplemented with 10% fetal bovine serum (FBS) and penicillin/streptomycin, Ba/F3 cells were maintained in RPMI 1640 supplemented with 10% FBS, penicillin/streptomycin and 5 ng/ml recombinant mouse IL-3.
# Compounds were tested in the following assays in duplicate.
# 96-well XTT assay: Cells (e.g. BaF3 315I, M351I, or E255K cells) were grown in growth media containing various concentrations of compounds (duplicates) on a 96-well plate for 72 hours at 37° C. The starting cell number was 5000-8000 cells per well and volume was 120 μl. At the end of the 72-hour incubation, 40 μl of XTT labeling mixture (50:1 solution of sodium 3′-[1-(phenylamino-carbonyl)-3,4-tetrazolium]-bis(4-methoxy-6-nitro) benzene sulfonic acid hydrate and Electron-coupling reagent: PMS (N-methyl dibenzopyrazine methyl sulfate) were added to each well of the plate. After an additional 2-6 hours of incubation at 37° C., the absorbance reading at 405 nm with background correction at 650 nm was measured with a spectrophotometer.
row,Structure (SMILES),IC50
1,COc1ccccc1-c1c[nH]c2ncc(-c3ccc4[nH]cc(CC(=O)O)c4c3)cc12 [AE10],< 100 nM
